# Experimental data taken from ChEMBL document CHEMBL4765275, “Discovery of novel tertiary amide derivatives as NEDDylation pathway activators to inhibit the tumor progression in vitro and in vivo” (Eur J Med Chem, 2020).
# Activity calls are given as the source filed them. The rule behind the calls is not given here.
# Legend:
# MGC-803 [1] = experiment: Induction of apoptosis in human MGC-803 cells assessed as upregulation of Fasl expression at 50 to 150 nmol/L measured after 48 hrs by Western blot analysis; format: functional, cell-based; details: dose 50-150 nmol/L
# MGC-803 [2] = experiment: Induction of morphological changes in human MGC-803 cells assessed as increase in cell debris at 50 to 150 nmol/L measured after 48 hrs by bright field microscopic analysis; format: functional, cell-based; details: dose 50-150 nmol/L
# MGC-803 [3] = experiment: Induction of apoptosis in human MGC-803 cells assessed as down regulation of c-IAP1 expression at 150 nmol/L measured after 24 hrs in presence of proteasome inhibitor […] by Western blot analysis; format: functional, cell-based
# MGC-803 [4] = experiment: Antiproliferative activity against human MGC-803 cells measured after 48 hrs by MTT assay; format: functional, cell-based
# MGC-803 [5] = experiment: Induction of apoptosis in human MGC-803 cells assessed as down regulation of XIAP expression at 150 nmol/L measured after 24 hrs in presence of NEDDylation inhibitor MLN4924 by Western blot analysis; format: functional, cell-based
# MGC-803 [6] = experiment: Antitumor activity against human MGC-803 cells xenografted in mouse assessed as reduction in tumor volume at 100 to 150 mg/kg, sc measured after 28 days by caliper method; format: functional, organism-based; details: dose 100-150 mg/kg, time 28.0 day
# MGC-803 [7] = experiment: Induction of apoptosis in human MGC-803 cells assessed as late apoptotic cells at 100 nmol/L measured after 48 hrs by Annexin V-FITC/propidium iodide staining based flow cytometry (reference value: 5.6%); format: functional
# MGC-803 [8] = experiment: Induction of apoptosis in human MGC-803 cells assessed as down regulation of Bcl-2 expression at 50 to 150 nmol/L measured after 48 hrs by Western blot analysis; format: functional, cell-based; details: dose 50-150 nmol/L
# PC-3 = experiment: Antiproliferative activity against human PC-3 cells measured after 48 hrs by MTT assay; format: functional, cell-based; details: PC-3, 48 h
# MCF7 = experiment: Antiproliferative activity against human MCF7 cells measured after 48 hrs by MTT assay; format: functional, cell-based; details: MCF7, 48 h
# [9] = biological target: T1, NEDD8-activating enzyme E1 regulatory subunit (Homo sapiens) (UniProt Q13564); experiment: Activation of NAE1-mediated neddylation in human MGC-803 cells assessed as increase in Nedd8-[…] adduct formation at 50 to 150 nmol/L measured after 24 hrs by Western blot analysis; format: cell-based; details: filed as activator, dose 50-150 nmol/L
# T1 sequence (whole entry): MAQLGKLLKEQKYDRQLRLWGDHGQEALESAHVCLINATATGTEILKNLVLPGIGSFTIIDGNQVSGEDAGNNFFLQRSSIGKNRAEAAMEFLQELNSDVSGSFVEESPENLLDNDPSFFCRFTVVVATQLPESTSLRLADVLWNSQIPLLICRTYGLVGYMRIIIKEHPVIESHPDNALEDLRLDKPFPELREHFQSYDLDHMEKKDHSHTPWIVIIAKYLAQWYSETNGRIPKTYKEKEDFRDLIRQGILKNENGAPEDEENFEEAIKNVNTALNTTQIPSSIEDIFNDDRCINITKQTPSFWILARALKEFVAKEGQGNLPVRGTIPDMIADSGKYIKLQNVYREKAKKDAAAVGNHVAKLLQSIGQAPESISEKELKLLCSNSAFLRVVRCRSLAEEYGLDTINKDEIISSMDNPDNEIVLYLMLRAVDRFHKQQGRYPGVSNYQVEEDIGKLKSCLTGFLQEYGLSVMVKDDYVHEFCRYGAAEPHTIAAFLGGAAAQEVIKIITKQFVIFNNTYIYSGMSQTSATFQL
# MGC-803 [10] = experiment: Antiproliferative activity against human MGC-803 cells assessed as cell viability measured after 48 hrs in presence of NEDDylation inhibitor MLN4924 by MTT assay relative to control; format: functional
# MGC-803 [11] = experiment: Cell cycle arrest in human MGC-803 cells assessed as accumulation at G2 phase at 50 nmol/L measured after 48 hrs by propidium iodide staining based flow cytometry (reference value: 24.91%); format: functional
# MGC-803 [12] = experiment: Antitumor activity against human MGC-803 cells xenografted in mouse assessed as reduction in tumor weight at 100 mg/kg, sc measured after 28 days relative to control; format: functional; set-up: scale not given: the % may be the effect or the level left; details: time 28 day
# MGC-803 [13] = experiment: Induction of apoptosis in human MGC-803 cells assessed as early apoptotic cells at 50 nmol/L measured after 48 hrs by Annexin V-FITC/propidium iodide staining based flow cytometry (reference value: 2.2%); format: functional
# MGC-803 [14] = experiment: Induction of apoptosis in human MGC-803 cells assessed as down regulation of XIAP expression at 50 to 150 nmol/L measured after 48 hrs by Western blot analysis; format: functional, cell-based; details: dose 50-150 nmol/L
# [15] = biological target: T1, NEDD8-activating enzyme E1 regulatory subunit (Homo sapiens); experiment: Activation of NAE1-mediated neddylation in human MGC-803 cells assessed as increase in Nedd8-[…] adduct formation at 50 to 500 nmol/L measured after 30 mins in presence of ATP by Western blot analysis; format: cell-based; details: filed as activator, dose 50-500 nmol/L
# MGC-803 [16] = experiment: Cell cycle arrest in human MGC-803 cells assessed as accumulation at S phase at 150 nmol/L measured after 48 hrs by propidium iodide staining based flow cytometry (reference value: 34.48%); format: functional
# MGC-803 [17] = experiment: Antitumor activity against human MGC-803 cells xenografted in mouse assessed as reduction in tumor weight at 50 mg/kg, sc measured after 28 days relative to control; format: functional; set-up: scale not given: the % may be the effect or the level left; details: time 28 day
# MGC-803 [18] = experiment: Cell cycle arrest in human MGC-803 cells assessed as accumulation at G1 phase at 100 nmol/L measured after 48 hrs by propidium iodide staining based flow cytometry (reference value: 40.61%); format: functional
# MGC-803 [19] = experiment: Induction of apoptosis in human MGC-803 cells assessed as increase in cleaved PARP expression at 50 to 150 nmol/L measured after 48 hrs by Western blot analysis; format: functional, cell-based; details: dose 50-150 nmol/L
# MGC-803 [20] = experiment: Induction of apoptosis in human MGC-803 cells assessed as increase in activated caspase-8 expression at 50 to 150 nmol/L measured after 48 hrs by Western blot analysis; format: functional, cell-based; details: dose 50-150 nmol/L
# [21] = biological target: T1, NEDD8-activating enzyme E1 regulatory subunit (Homo sapiens); experiment: Activation of NAE1-mediated neddylation in human MGC-803 cells assessed as increase in Nedd8-CUL1 adduct formation at 50 to 150 nmol/L measured after 24 hrs by Western blot analysis; format: cell-based; details: filed as activator, dose 50-150 nmol/L
# MGC-803 [22] = experiment: Cell cycle arrest in human MGC-803 cells assessed as accumulation at G1 phase at 50 nmol/L measured after 48 hrs by propidium iodide staining based flow cytometry (reference value: 40.61%); format: functional
# MGC-803 [23] = experiment: Induction of apoptosis in human MGC-803 cells assessed as late apoptotic cells at 75 nmol/L measured after 48 hrs by Annexin V-FITC/propidium iodide staining based flow cytometry (reference value: 5.6%); format: functional
# MGC-803 [24] = experiment: Cell cycle arrest in human MGC-803 cells assessed as accumulation at S phase at 100 nmol/L measured after 48 hrs by propidium iodide staining based flow cytometry (reference value: 34.48%); format: functional
# MGC-803 [25] = experiment: Induction of apoptosis in human MGC-803 cells assessed as necrotic cells at 100 nmol/L measured after 48 hrs by Annexin V-FITC/propidium iodide staining based flow cytometry (reference value: 0.5%); format: functional
# MGC-803 [26] = experiment: Induction of apoptosis in human MGC-803 cells assessed as increase in activated caspase-9 expression at 50 to 150 nmol/L measured after 48 hrs by Western blot analysis; format: functional, cell-based; details: dose 50-150 nmol/L
compound,measurement,setting,value
COc1ccc(CN(C(=O)Cc2cccs2)c2cc(OC)c(OC)c(OC)c2)cc1,Activity,MGC-803 [1],Active
same,Activity,MGC-803 [2],Active
same,Activity,MGC-803 [3],inactive
same,Activity,MGC-803 [4],Dose-dependent effect
same,IC50,"MGC-803 [4]; MGC-803, 48 h",90 nM
same,Activity,MGC-803 [5],Active
same,Activity,MGC-803 [6],Active
same,Activity,MGC-803 [7],23.2%
same,Activity,MGC-803 [8],Active
same,IC50,PC-3,1150 nM
same,IC50,MCF7,100 nM
same,Activity,[9],Active
same,Activity,MGC-803 [10],64.2%
same,Activity,MGC-803 [11],35.12%
same,Activity,MGC-803 [12],42%
same,Activity,MGC-803 [13],5.2%
same,Activity,MGC-803 [14],Active
same,Activity,[15],Active
same,Activity,MGC-803 [16],16.21%
same,Activity,MGC-803 [17],36%
same,Activity,MGC-803 [18],37.76%
same,Activity,MGC-803 [19],Active
same,Activity,MGC-803 [20],Active
same,Activity,[21],Active
same,Activity,MGC-803 [22],37.2%
same,Activity,MGC-803 [23],11%
same,Activity,MGC-803 [24],21.52%
same,Activity,MGC-803 [25],2.5%
same,Activity,MGC-803 [26],Active
